# Results taken from patent US20070298105A1, “METHODS OF TREATING CONDITIONS BY SUSTAINED RELEASE ADMINISTRATION OF BENZIMIDAZOLE DERIVATIVES” (priority 2006, published 2007).
# Read-outs that look alike come from different tables or passages of the source.
# Key:
# [1] = Colonic intubation study: plasma pharmacokinetics of rabeprazole and esomeprazole; format: in vivo, human; details: for AUC(0-inf): read-out: AUCinf (mean)
# Protocol: A single-dose, open-label, partially randomized, five-treatment, five-period, crossover pilot study was performed in healthy males to determine relative pharmacokinetics of rabeprazole, and comparators when dosed either orally or colonically. The study was a single dose study with blood sampling up to 24 hours following initiation. […] Colonic dosing occurred using a nasoenteral tube. Treatment C was a single 20 mg dose of rabeprazole sodium oral enteric coated tablets dosed orally. Treatment D was placebo (200 mL of water) dosed orally. […] For subjects whose apparent elimination rate constant [k] could not be properly determined, the AUC to infinity [AUCinf]) was calculated based on the median apparent elimination constant [k] of the subjects with available t1/2 values in the same treatment period. […] The intragastric pH profile were determined.
# intragastric pH = assay: Colonic intubation study: intragastric pH profile (percent of time with pH >4); format: in vivo, human
# Protocol: A single-dose, open-label, partially randomized, five-treatment, five-period, crossover pilot study was performed in healthy males to determine relative pharmacokinetics of rabeprazole, and comparators when dosed either orally or colonically. The study was a single dose study with blood sampling up to 24 hours following initiation.
# Treatments A and B were rabeprazole sodium solution dosed to provide 30 and 60 mg, respectively, over 20 hours in the transverse colon of the subjects. Colonic dosing occurred using a nasoenteral tube. Treatment C was a single 20 mg dose of rabeprazole sodium oral enteric coated tablets dosed orally. Treatment D was placebo (200 mL of water) dosed orally.
# The intragastric pH profile was analyzed based on the percentage of time that the intragastric pH was above 4, which was calculated for the full 24 hours. In addition, the mean pH value over 5 time intervals of 6 hours each during the 30-hr sampling time was also estimated.
# [2] = male, human, plasma, other: colonic (nasoenteral tube into the transverse colon), 30 mg, TRT A: rabeprazole 30 mg solution in the colon over 20 hours, N = 19
# [3] = male, human, plasma, other: colonic (nasoenteral tube into the transverse colon), 30 mg, TRT A: rabeprazole 30 mg solution in the colon over 20 hours, subset N = 14
# [4] = male, human, plasma, other: colonic (nasoenteral tube into the transverse colon), 60 mg, TRT B: rabeprazole 60 mg solution in the colon over 20 hours, N = 19
# [5] = male, human, plasma, other: colonic (nasoenteral tube into the transverse colon), 60 mg, TRT B: rabeprazole 60 mg solution in the colon over 20 hours, subset N = 14
# [6] = male, human, plasma, po, 20 mg, TRT C: rabeprazole 20 mg oral tablet, N = 19
# [7] = male, human, plasma, po, 20 mg, TRT C: rabeprazole 20 mg oral tablet, subset N = 14
structure (smiles),measurement,setting,value
"COCCCOc1ccnc(C[S+]([O-])c2nc3ccccc3[nH]2)c1C (centres unmarked) [Rabeprazole, 2-[[[4-(3-methoxypropoxy)-3-methyl-2-pyridinyl]-methyl]sulfinyl]-1H-benzimidazole]",dose proportionality of mean Cmax and AUC,[1]; 30 mg and 60 mg colonic treatments,increased approximately dose proportionally
same,Tmax,"[1]; male, human, plasma, other: colonic (nasoenteral tube into the transverse colon), 30 mg, 30 mg rabeprazole colonic solution treatment, after start of treatment (colon infusion ended at 20 hr), read-out: median Tmax",~18 h
same,AUC(0-t),[1]; [2],287 ng·h/mL
same,AUC(0-inf),[1]; [2],332 ng·h/mL
same,Tmax,"[1]; male, human, plasma, other: colonic (nasoenteral tube into the transverse colon), 30 mg, TRT A: rabeprazole 30 mg solution in the colon over 20 hours, N = 19, read-out: Tmax (median)",18 h
same,half-life,"[1]; male, human, plasma, other: colonic (nasoenteral tube into the transverse colon), 30 mg, TRT A: rabeprazole 30 mg solution in the colon over 20 hours, N = 19, read-out: t1/2 (median) (converted)",2 h
same,Cmax,"[1]; male, human, plasma, other: colonic (nasoenteral tube into the transverse colon), 30 mg, TRT A: rabeprazole 30 mg solution in the colon over 20 hours, single dose, healthy males, N = 19",18 ng/mL
same,AUC(0-t),[1]; [3],290 ng·h/mL
same,AUC(0-inf),[1]; [3],343 ng·h/mL
same,half-life,"[1]; male, human, plasma, other: colonic (nasoenteral tube into the transverse colon), 30 mg, TRT A: rabeprazole 30 mg solution in the colon over 20 hours, subset N = 14, read-out: t1/2 (median) (converted)",2 h
same,Tmax,"[1]; male, human, plasma, other: colonic (nasoenteral tube into the transverse colon), 60 mg, 60 mg rabeprazole colonic solution treatment, after start of treatment (colon infusion ended at 20 hr), read-out: median Tmax",~18 h
same,AUC(0-t),[1]; [4],549 ng·h/mL
same,AUC(0-inf),[1]; [4],599 ng·h/mL
same,Tmax,"[1]; male, human, plasma, other: colonic (nasoenteral tube into the transverse colon), 60 mg, TRT B: rabeprazole 60 mg solution in the colon over 20 hours, N = 19, read-out: Tmax (median)",18 h
same,half-life,"[1]; male, human, plasma, other: colonic (nasoenteral tube into the transverse colon), 60 mg, TRT B: rabeprazole 60 mg solution in the colon over 20 hours, N = 19, read-out: t1/2 (median) (converted)",1.9 h
same,Cmax,"[1]; male, human, plasma, other: colonic (nasoenteral tube into the transverse colon), 60 mg, TRT B: rabeprazole 60 mg solution in the colon over 20 hours, single dose, healthy males, N = 19",38.4 ng/mL
same,AUC(0-t),[1]; [5],586 ng·h/mL
same,AUC(0-inf),[1]; [5],646 ng·h/mL
same,half-life,"[1]; male, human, plasma, other: colonic (nasoenteral tube into the transverse colon), 60 mg, TRT B: rabeprazole 60 mg solution in the colon over 20 hours, subset N = 14, read-out: t1/2 (median) (converted)",2.1 h
same,half-life,"[1]; male, human, plasma, other: colonic (nasoenteral tube into the transverse colon), rabeprazole following colonic treatment, read-out: median plasma half-life (converted)",~2 h
same,bioavailability,"[1]; male, human, plasma, other: colonic (nasoenteral tube into the transverse colon), colonic treatment compared to oral tablets, dose-normalized basis, read-out: percent relative bioavailability (colonic bioavailability)",~40%
same,Cmax,"[1]; male, human, plasma, other: colonic (transverse colon, via nasoenteral tube), 30 mg, TRT A: rabeprazole 30 mg solution in the colon over 20 hours, subset N = 14",18.7 ng/mL
same,Tmax,"[1]; male, human, plasma, other: colonic (transverse colon, via nasoenteral tube), 30 mg, TRT A: rabeprazole 30 mg solution in the colon over 20 hours, subset N = 14, read-out: Tmax (median)",18 h
same,Cmax,"[1]; male, human, plasma, other: colonic (transverse colon, via nasoenteral tube), 60 mg, TRT B: rabeprazole 60 mg solution in the colon over 20 hours, subset N = 14",43.7 ng/mL
same,Tmax,"[1]; male, human, plasma, other: colonic (transverse colon, via nasoenteral tube), 60 mg, TRT B: rabeprazole 60 mg solution in the colon over 20 hours, subset N = 14, read-out: Tmax (median)",18 h
same,Tmax,"[1]; male, human, plasma, po, 20 mg, 20 mg rabeprazole oral tablet treatment, read-out: median Tmax",4.5 to 6 h
same,AUC(0-t),[1]; [6],534 ng·h/mL
same,AUC(0-inf),[1]; [6],603 ng·h/mL
same,Tmax,"[1]; male, human, plasma, po, 20 mg, TRT C: rabeprazole 20 mg oral tablet, N = 19, read-out: Tmax (median)",4.5 h
same,half-life,"[1]; male, human, plasma, po, 20 mg, TRT C: rabeprazole 20 mg oral tablet, N = 19, read-out: t1/2 (median) (converted)",0.96 h
same,Cmax,"[1]; male, human, plasma, po, 20 mg, TRT C: rabeprazole 20 mg oral tablet, single dose, healthy males, N = 19",239 ng/mL
same,AUC(0-t),[1]; [7],619 ng·h/mL
same,Cmax,[1]; [7],267 ng/mL
same,AUC(0-inf),[1]; [7],697 ng·h/mL
same,Tmax,"[1]; male, human, plasma, po, 20 mg, TRT C: rabeprazole 20 mg oral tablet, subset N = 14, read-out: Tmax (median)",6 h
same,half-life,"[1]; male, human, plasma, po, 20 mg, TRT C: rabeprazole 20 mg oral tablet, subset N = 14, read-out: t1/2 (median) (converted)",1 h
same,half-life,"[1]; male, human, plasma, po, 20 mg, rabeprazole following oral administration, read-out: median plasma half-life (converted)",~1 h
same,AUC compared with 20 mg oral tablet,[1]; rabeprazole 60 mg colonic treatment,comparable AUC
same,Mean percent of time with pH >4,"intragastric pH; 0-6 hr (10 am-4 pm), TRT A: rabeprazole 30 mg solution in the colon, N = 19",30.6%
same,Mean percent of time with pH >4,"intragastric pH; 0-6 hr (10 am-4 pm), TRT B: rabeprazole 60 mg solution in the colon, N = 19",32.6%
same,Mean percent of time with pH >4,"intragastric pH; 0-6 hr (10 am-4 pm), TRT B: rabeprazole 60 mg solution in the colon, subset N = 14",34.6%
same,Mean percent of time with pH >4,"intragastric pH; 0-6 hr (10 am-4 pm), TRT C: rabeprazole 20 mg oral tablet, N = 19",31.1%
same,Mean percent of time with pH >4,"intragastric pH; 0-6 hr (10 am-4 pm), TRT C: rabeprazole 20 mg oral tablet, subset N = 14",29.1%
same,Mean percent of time with pH >4,"intragastric pH; 6-12 hr (4 pm-10 pm), TRT A: rabeprazole 30 mg solution in the colon, N = 19",37.9%
same,Mean percent of time with pH >4,"intragastric pH; 6-12 hr (4 pm-10 pm), TRT B: rabeprazole 60 mg solution in the colon, N = 19",50.5%
same,Mean percent of time with pH >4,"intragastric pH; 6-12 hr (4 pm-10 pm), TRT B: rabeprazole 60 mg solution in the colon, subset N = 14",55.8%
same,Mean percent of time with pH >4,"intragastric pH; 6-12 hr (4 pm-10 pm), TRT C: rabeprazole 20 mg oral tablet, N = 19",60.9%
same,Mean percent of time with pH >4,"intragastric pH; 6-12 hr (4 pm-10 pm), TRT C: rabeprazole 20 mg oral tablet, subset N = 14",63.6%
same,Mean percent of time with pH >4,"intragastric pH; 12-18 hr (10 pm-4 am), TRT A: rabeprazole 30 mg solution in the colon, N = 19",23.2%
same,Mean percent of time with pH >4,"intragastric pH; 12-18 hr (10 pm-4 am), TRT B: rabeprazole 60 mg solution in the colon, N = 19",34.3%
same,Mean percent of time with pH >4,"intragastric pH; 12-18 hr (10 pm-4 am), TRT B: rabeprazole 60 mg solution in the colon, subset N = 14",39.9%
same,Mean percent of time with pH >4,"intragastric pH; 12-18 hr (10 pm-4 am), TRT C: rabeprazole 20 mg oral tablet, N = 19",25.9%
same,Mean percent of time with pH >4,"intragastric pH; 12-18 hr (10 pm-4 am), TRT C: rabeprazole 20 mg oral tablet, subset N = 14",26.7%
same,Mean percent of time with pH >4,"intragastric pH; 18-24 hr (4 am-10 am), TRT A: rabeprazole 30 mg solution in the colon, N = 19",47.2%
same,Mean percent of time with pH >4,"intragastric pH; 18-24 hr (4 am-10 am), TRT B: rabeprazole 60 mg solution in the colon, N = 19",64.0%
same,Mean percent of time with pH >4,"intragastric pH; 18-24 hr (4 am-10 am), TRT B: rabeprazole 60 mg solution in the colon, subset N = 14",68.9%
same,Mean percent of time with pH >4,"intragastric pH; 18-24 hr (4 am-10 am), TRT C: rabeprazole 20 mg oral tablet, N = 19",37.8%
same,Mean percent of time with pH >4,"intragastric pH; 18-24 hr (4 am-10 am), TRT C: rabeprazole 20 mg oral tablet, subset N = 14",35.4%
same,Mean percent of time with pH >4,"intragastric pH; 24-30 hr (10 am-4 pm), TRT A: rabeprazole 30 mg solution in the colon, N = 19",45.4%
same,Mean percent of time with pH >4,"intragastric pH; 24-30 hr (10 am-4 pm), TRT B: rabeprazole 60 mg solution in the colon, N = 19",64.4%
same,Mean percent of time with pH >4,"intragastric pH; 24-30 hr (10 am-4 pm), TRT B: rabeprazole 60 mg solution in the colon, subset N = 14",72.0%
same,Mean percent of time with pH >4,"intragastric pH; 24-30 hr (10 am-4 pm), TRT C: rabeprazole 20 mg oral tablet, N = 19",43.6%
same,Mean percent of time with pH >4,"intragastric pH; 24-30 hr (10 am-4 pm), TRT C: rabeprazole 20 mg oral tablet, subset N = 14",45.4%
same,Mean percent of time with pH >4,"intragastric pH; 24-hr average, TRT A: rabeprazole 30 mg solution in the colon, N = 19",34.7%
same,Mean percent of time with pH >4,"intragastric pH; 24-hr average, TRT A: rabeprazole 30 mg solution in the colon, N = 19, listed as rabeprazole",35%
same,Mean percent of time with pH >4,"intragastric pH; 24-hr average, TRT B: rabeprazole 60 mg solution in the colon, N = 19",44.9%
same,Mean percent of time with pH >4,"intragastric pH; 24-hr average, TRT B: rabeprazole 60 mg solution in the colon, N = 19, listed as rabeprazole",45%
same,Mean percent of time with pH >4,"intragastric pH; 24-hr average, TRT B: rabeprazole 60 mg solution in the colon, subset N = 14",49.2%
same,Mean percent of time with pH >4,"intragastric pH; 24-hr average, TRT C: rabeprazole 20 mg oral tablet, N = 19",38.9%
same,Mean percent of time with pH >4,"intragastric pH; 24-hr average, TRT C: rabeprazole 20 mg oral tablet, N = 19, listed as rabeprazole",39%
same,Mean percent of time with pH >4,"intragastric pH; 24-hr average, TRT C: rabeprazole 20 mg oral tablet, subset N = 14",38.7%
same,dose dependence of percentage of time with pH >4,"intragastric pH; 30 and 60 mg colonic rabeprazole treatments, 6-12 h period and beyond",dose-dependent increase
same,effect on percentage of time with pH >4 compared to placebo,"intragastric pH; first 6 hours of treatment, rabeprazole Treatments A, B and C",not significantly different from placebo
same,gastric pH control compared with rabeprazole 20 mg tablet,"intragastric pH; rabeprazole 60 mg colonic treatment, especially during the night-time period (12-30 hr)",better gastric pH control
